Assay results as given in patent US11360077B2, “Death receptors as markers for rhTRAIL-sensitivity” (Cleveland State University, priority 2017, dated 2022).
Residues, ends and D or L forms follow the SMILES beside them. *: point of attachment. Cbz = O=C(OCc1ccccc1)*; CH2F = FC*

Key:
Format in all cases: cell-based, human
[1] = system: FLIP; assay: Total FLIP protein (western blot)
Procedure: Western Blot Analysis. Total cell lysates were prepared using RIPA lysis buffer (Sigma) containing 150 mM sodium chloride, 1.0% Triton X-100, 0.5% sodium deoxycholate, 0.1% sodium dodecyl sulfate (SDS) and 50 mM Tris, pH 8.0 plus a 1× cocktail of protease inhibitors (Protease Inhibitor Cocktail Set I, Calbiochem). Cells were lysed for 30 minutes at 4° C. followed by centrifugation for 10 minutes at 10,000 rpm at 4° C. Protein concentrations were determined using BCA protein assay (Pierce). A 35 μg protein aliquot was mixed with 4× Laemmli's SDS sample buffer (0.02% Bromophenol Blue (BPB), 8% Beta-mercaptoethanol (BME), 8% SDS, 40% glycerol and 250 mM Tris-HCl, pH 6.8). Cell lysates were heated for five minutes at 100° C., resolved by 12% SDS-polyacrylamide gel electrophoresis (SDS-PAGE) and transferred to polyvinylidene fluoride (PVDF) membrane. The membrane was blocked with 5% non-fat milk or 5% BSA for ≥1 hour and incubated with primary antibodies for PARP and caspase 8 (Cell Signaling). After incubation, the membrane was incubated with secondary anti-rabbit or mouse horseradish peroxidase (HRP)-conjugated antibodies (Biorad). Proteins were visualized through development by enhanced chemiluminescence (ECL 2 Western Blotting Substrate, Pierce) and exposure on X-ray film. The blots were reprobed for β-actin to confirm equal protein loading.
(§1) Western Blot Analysis. Total cell lysates were analyzed for levels of PARP, caspase 8, caspase 3, Bid, caspase 9, caspase 6, caspase 7, FLIP, DR4 and DR5 and the cytosolic cellular fraction was analyzed for cytochrome C (Cell Signaling) using previously described western blotting techniques.

[2] = system: rhTRAIL-resistant malignant melanomas; assay: Western blot of co-treatment with general caspase inhibitor Z-VAD-FMK; details: Z-VAD-FMK added to rhTRAIL plus quercetin
Procedure: (§2) Western Blot Analysis. Total cell lysates were prepared using RIPA lysis buffer (Sigma) containing 150 mM sodium chloride, 1.0% Triton X-100, 0.5% sodium deoxycholate, 0.1% sodium dodecyl sulfate (SDS) and 50 mM Tris, pH 8.0 plus a 1× cocktail of protease inhibitors (Protease Inhibitor Cocktail Set I, Calbiochem). Cells were lysed for 30 minutes at 4° C. followed by centrifugation for 10 minutes at 10,000 rpm at 4° C. Protein concentrations were determined using BCA protein assay (Pierce). A 35 μg protein aliquot was mixed with 4× Laemmli's SDS sample buffer (0.02% Bromophenol Blue (BPB), 8% Beta-mercaptoethanol (BME), 8% SDS, 40% glycerol and 250 mM Tris-HCl, pH 6.8). Cell lysates were heated for five minutes at 100° C., resolved by 12% SDS-polyacrylamide gel electrophoresis (SDS-PAGE) and transferred to polyvinylidene fluoride (PVDF) membrane. […]
as §1
Post treatment cells were collected and analyzed for induction of apoptosis through Annexin-V and PI staining and western blotting probing for key proteins in the apoptotic pathways (FIG. 4). […]

[3] = system: MeWo; assay: Apoptosis assay (FITC-Annexin-V and PI staining, FACS); details: quercetin alone at 25 and 50 μM
Procedure: (§3) Cell Culture. Cells were incubated in a 90% humidified atmosphere with 5% CO2 at 37° C. Human adult primary epidermal melanocytes (ATCC PCS-200-013) were maintained in Dermal Cell Basal Medium supplemented with an Adult Melanocyte Growth kit (ATCC PCS-200-042) and 1% Antibiotic/Antimycotic Solution. The malignant melanoma cell lines, A375 (ATCC CRL-1619), WM9 and WM164 were maintained in DMEM and MeWo (ATCC HTB-65) was maintained in RPMI, both supplemented with 10% Fetal Bovine Serum (FBS) and 1% Antibiotic/Antimycotic Solution. WM9 and WM164 were a kind gift from Dr. Daniel J. Lindner from the Cleveland Clinic Foundation, Cleveland, Ohio Malignant melanoma lines are derived from patient tumors. A375 was derived from an epithelial skin biopsy. MeWo, WM9 and WM164 are metastatic malignant melanomas isolated from the lymph nodes.
(§4) Apoptosis Assay. Cells were trypsinized, harvested, washed twice with cold PBS and resuspended in 100 μl of Annexin-V binding buffer at a concentration of 1×10^3 cells/μl. According to manufacturer's protocol, cells were incubated with 5 μl of FITC-Annexin-V and propidium iodide (PI) for 15 minutes at room temperature in the dark (FITC-Annexin-V Kit Apoptosis Detection Kit I, BD Pharminogen). Stained cells were analyzed on BD FACS Canto II using Diva software. Single color controls (Annexin-V or PI only) were used to set up compensation and quadrants for FACS.
(§5) Melanoma rhTRAIL-Sensitivity: To test rhTRAIL-sensitivity, malignant melanoma lines were treated with and without 100 ng/ml of rhTRAIL for 72 hours. Prior to treatment, control experiments were done to determine the optimal conditions for rhTRAIL-treatment (data not shown). The treatment of 100 ng/ml for 72 hours was selected to best distinguish between rhTRAIL-sensitive and rhTRAIL-resistant melanomas. Post-treatment cells were analyzed for induction of apoptosis through FITC-Annexin-V and PI staining followed by FACS analysis (FIGS. 2A & 2B). […]

[4] = system: WM164; assay: as above
Procedure: as §3, §4, §5

[5] = system: MeWo; assay: Western blot of apoptotic cascade (PARP, caspases, Bid, cytochrome c); details: quercetin alone at 25 and 50 μM
Procedure: as §2, with “6.8).” for “6.8). Cell lysates were heated for five minutes at 100° C., resolved by 12% SDS-polyacrylamide gel electrophoresis (SDS-PAGE) and transferred to polyvinylidene fluoride (PVDF) membrane.”
(§6) Melanoma rhTRAIL-Sensitivity: To test rhTRAIL-sensitivity, malignant melanoma lines were treated with and without 100 ng/ml of rhTRAIL for 72 hours. […] Post-treatment cells were analyzed for induction of apoptosis through FITC-Annexin-V and PI staining followed by FACS analysis (FIGS. 2A & 2B).
(§7) Western Blot Analysis. Total cell lysates were analyzed for levels of PARP, caspase 8, caspase 3, Bid, caspase 9, caspase 6, caspase 7, FLIP, DR4 and DR5 and the cytosolic cellular fraction was analyzed for cytochrome C (Cell Signaling) using previously described western blotting techniques. […]

[6] = system: WM164; assay: as above; details: WM164, quercetin alone at 25 and 50 μM
Procedure: as §2, with “6.8).” for “6.8). Cell lysates were heated for five minutes at 100° C., resolved by 12% SDS-polyacrylamide gel electrophoresis (SDS-PAGE) and transferred to polyvinylidene fluoride (PVDF) membrane.”
as §6, §7

[7] = system: DR4; assay: Death receptor membrane expression (anti-DR4-PE staining, FACS)
Procedure: (§8) Death Receptor Membrane Expression. Untreated and rhTRAIL-treated cells were collected with enzyme-free phosphate-buffered saline (PBS)-based cell dissociation buffer (Gibco Life Technologies) and stained with mouse anti-human DR4 or DR5 conjugated to phycoerythrin (PE) (eBioscience). Briefly, 0.25×10^6 cells were incubated in 100 μl of staining buffer (2% FBS and 0.02% sodium azide in PBS) and 5 μl anti-DR4 or anti-DR5 for one hour on ice in the dark. As a negative control to account for non-specific antibody binding, all four melanoma lines were stained with mouse IgG1κ, the same antibody isotype as DR4 and DR5, under the same conditions. After incubation, cells were washed twice with staining buffer and resuspended in 500 μl of staining buffer and analyzed on BD FACS Canto II using Diva software (BD Bioscience, San Jose, Calif.). Death Receptor Membrane Expression. The cell surface expression of DR4 and DR5 were determined according to previously described methods. For the permeabilization experiments, after the first antibody incubation cells were fixed in 4% paraformaldehyde for 10 minutes at room temperature and permeabilized with 0.1% saponin for 5 minutes at room temperature. Cells were then incubated with anti-IgG1κ, DR4 or DR5 for 30 minutes in the saponin buffer and analyzed by FACS. To calculate the cytoplasmic DR expression, […].

[8] = system: DR5; assay: Death receptor membrane expression (anti-DR5-PE staining, FACS)
Procedure: as §8

[9] = system: DR4; assay: Total DR4 protein (western blot)
Procedure: as §2, with “membrane. The membrane was blocked with 5% non-fat milk or 5% BSA for ≥1 hour and incubated with primary antibodies for PARP and caspase 8 (Cell Signaling).” for “membrane.”
as §1

[10] = system: DR4; assay: DR4 mRNA (reverse transcription-PCR)
Procedure: (§9) Reverse Transcription-PCR. Total RNA was extracted using TRIzol reagent (Ambion) and treated with DNase according to manufacturer's protocol (Invitrogen Deoxyribonuclease I, Amplification Grade). RT-PCR was performed following the manufacturer's protocol (Invitrogen SuperScript III One-Step RT-PCR System with Platinum® Taq DNA Polymerase). Human DR5 mRNA was amplified using the forward primer 5′-[…]-3′ and the reverse primer 5′-[…]-3′. For DR4, forward primer 5′-GAGCAACGCAGACTCGCT-3′ and the reverse primer 5′-TCACTCCAAGGACACGGC-3′ were used. For FLIP, forward primer 5′-[…]-3′ and the reverse primer 5′-[…]-3′ were used. For β-actin, the forward primer 5′-[…]-3′ and the reverse primer 5′-[…]-3′ were used. cDNA synthesis was performed at 60° C. for 30 minutes using the Applied Biosystems GeneAmp PCR System 9700. The PCR cycling conditions (30 cycles) were as follows: denature for 2 minutes at 94° C., anneal for 30 seconds at 55° C. for FLIP and DR4 and 65° C. for DR5 and β-actin, extend for 1 minute and 30 seconds at 68° C., and execute a final extension for 10 minutes at 68° C. Reaction products were analyzed on 1.2% agarose gels. The bands were visualized by ethidium bromide and an UV.

[11] = system: DR5; assay: Total DR5 protein (western blot)
Procedure: as §2, with “membrane. The membrane was blocked with 5% non-fat milk or 5% BSA for ≥1 hour and incubated with primary antibodies for PARP and caspase 8 (Cell Signaling).” for “membrane.”
as §1

[12] = system: DR5; assay: DR5 mRNA (reverse transcription-PCR)
Procedure: as §9

[13] = system: DR4; assay: Cytoplasmic DR4 expression (permeabilization, FACS)
Procedure: Death Receptor Membrane Expression. The cell surface expression of DR4 and DR5 were determined according to previously described methods. For the permeabilization experiments, after the first antibody incubation cells were fixed in 4% paraformaldehyde for 10 minutes at room temperature and permeabilized with 0.1% saponin for 5 minutes at room temperature. Cells were then incubated with anti-IgG1κ, DR4 or DR5 for 30 minutes in the saponin buffer and analyzed by FACS. To calculate the cytoplasmic DR expression, […].

[14] = system: FLIP; assay: FLIP mRNA (reverse transcription-PCR)
Procedure: as §9

[15] = MeWo, post-treatment with quercetin
[16] = WM164, post-treatment with quercetin

## CC(C)C[C@@H](C=O)NC(=O)[C@H](CC(C)C)NC(=O)[C@H](CC(C)C)NC(=O)OCc1ccccc1 [MG132, reference compound] (Cbz-Leu-Leu-Leu-aldehyde)
[1]; co-treatment with quercetin
  effect of proteasome inhibitor on quercetin-mediated FLIP downregulation (total FLIP protein): the downregulation of FLIP was prevented

## COC(=O)C[C@H](NC(=O)[C@H](C)NC(=O)[C@@H](NC(=O)OCc1ccccc1)C(C)C)C(=O)CF [Z-VAD-FMK] (Cbz-Val-Ala-Asp(OMe)-CH2F)
[2]
  effect on induction of apoptosis (PARP cleavage, caspase 3 activation) in the co-treatment group: blocked the induction of apoptosis

## O=c1c(O)c(-c2ccc(O)c(O)c2)oc2cc(O)cc(O)c12 [quercetin]
[3]
  induction of apoptosis compared to control: no significant induction of apoptosis
[4]; WM164, quercetin alone at 25 μM
  apoptotic cells: 10.5±0.7%
[4]; WM164, quercetin alone at 50 μM
  apoptotic cells: 19.1±1.6%
[5]
  PARP cleavage or activation of pro-apoptotic proteins: no PARP cleavage or activation of any pro-apoptotic proteins
[6]
  PARP cleavage or protein activation: did not reveal any PARP cleavage or protein activation
[7]; MeWo, quercetin 25 μM
  DR4 membrane expression, fold increase relative to control: over four-fold
[7]; MeWo, quercetin 50 μM
  DR4 membrane expression, fold increase relative to control: over 11 fold
[7]; WM164, quercetin 25 μM
  DR4 membrane expression, fold increase relative to control: nearly five-fold
[7]; WM164, quercetin 50 μM
  DR4 membrane expression, fold increase relative to control: seven-fold
[8]; MeWo, quercetin 25 and 50 μM
  DR5 membrane expression upregulation: this did not occur
[8]; WM164, quercetin 25 μM
  DR5 membrane expression, fold increase relative to control: quarter-fold increase
[8]; WM164, quercetin 50 μM
  DR5 membrane expression, fold increase relative to control: half-fold increase
[9]; [15]
  total DR4 protein expression: no change
[9]; [16]
  total DR4 protein expression: no change
[10]; [15]
  DR4 mRNA message: no change
[10]; [16]
  DR4 mRNA message: no change
[11]; [15]
  total DR5 protein expression: no change
[11]; [16]
  total DR5 protein: dose-dependent upregulation
[12]; [15]
  DR5 mRNA: no change
[12]; [16]
  DR5 mRNA: dose-dependent upregulation
[13]; MeWo, application of quercetin
  cytoplasmic levels of DR4: decreased
[13]; WM164, application of quercetin
  cytoplasmic levels of DR4: decreased
[1]; MeWo, quercetin
  protein expression of FLIP: dose-dependently downregulate
[1]; WM164, quercetin
  protein expression of FLIP: dose-dependently downregulate
[14]; MeWo, quercetin
  FLIP mRNA transcript signal: no change
[14]; WM164, quercetin
  FLIP mRNA transcript signal: no change
